Values joined by “and” are separate entries in the source; they are usually repeats but may differ in a detail not shown here. Identical values can stand only once.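 48-hour exposure; five concentrations; linearly interpolated endpoints. GI50 = concentration required for 50% inhibition of growth. The concentration for full growth arrest is given as TGI.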
Columns and labels:
Assay in all cases: DTP human tumour cell line panel, 48 h
OVCAR-8 ovarian = system: OVCAR-8 ovarian
MCF7 breast = system: MCF7 breast
NCI-H226 lung = system: NCI-H226 lung
IGROV1 ovarian = system: IGROV1 ovarian
DU-145 prostate = system: DU-145 prostate
SK-MEL-5 melanoma = system: SK-MEL-5 melanoma
CCRF-CEM leukemia = system: CCRF-CEM leukemia
HCT-15 colon = system: HCT-15 colon
NCI-H522 lung = system: NCI-H522 lung
SNB-19 CNS = system: SNB-19 CNS

Structure (SMILES) | TGI (OVCAR-8 ovarian) | TGI (MCF7 breast) | TGI (NCI-H226 lung) | TGI (IGROV1 ovarian) | TGI (DU-145 prostate) | TGI (SK-MEL-5 melanoma) | TGI (CCRF-CEM leukemia) | TGI (HCT-15 colon) | TGI (NCI-H522 lung) | TGI (SNB-19 CNS) | GI50 (OVCAR-8 ovarian) | GI50 (MCF7 breast) | GI50 (NCI-H226 lung) | GI50 (IGROV1 ovarian) | GI50 (DU-145 prostate) | GI50 (SK-MEL-5 melanoma) | GI50 (CCRF-CEM leukemia) | GI50 (HCT-15 colon) | GI50 (NCI-H522 lung) | GI50 (SNB-19 CNS)
CCCC(C)c1c(Cl)nc(Cl)nc1Cl (stereo not given) | 55.9 µM | 26.3 µM | 18.7 µM | 36.4 µM | 28.3 µM | 13.9 µM | > 100 µM | 64.4 µM | 5.32 µM | 35.6 µM |  |  |  |  |  |  |  |  |  | 
COc1ccc(C2=N[C@@H](c3ccc(Cl)cc3)[C@@H](c3ccc(Cl)cc3)N2C(=O)N2CCNC(=O)C2)c(OC(C)C)c1 | 31.1 µM and 30.9 µM and 30.1 µM | 28.2 µM and 12.9 µM and 13 µM | 30.2 µM and 6.83 µM and 5.86 µM | 29.4 µM and 26.2 µM and 26.5 µM | 28.7 µM and 29.3 µM and 30.3 µM | 27.2 µM and 17.7 µM and 19.6 µM | 35.4 µM and 42.7 µM and 50 µM | 32.3 µM and 28.7 µM and 30.2 µM | 28.5 µM and 27.3 µM and 31.1 µM | 26.1 µM and 30.1 µM and 28.2 µM | 15.2 µM and 15.1 µM and 14.8 µM | 13 µM and 2.43 µM and 2.27 µM | 13.7 µM and 1.57 µM and 1.56 µM | 13.1 µM and 6.5 µM and 5.08 µM | 15.2 µM and 15.8 µM and 16.6 µM | 14.1 µM and 5.35 µM and 6.56 µM | 14.7 µM and 16.8 µM and 18.4 µM | 14.3 µM and 14.5 µM and 14.9 µM | 14.6 µM and 13.6 µM and 16.3 µM | 12.5 µM and 15.5 µM and 14.6 µM
COC1C(CO)OC(n2c3c(Cl)cccc3c3c4c(c5c6cccc(Cl)c6[nH]c5c32)C(=O)NC4=O)C(O)C1O (stereo not given) | 16.6 µM | 4.86 µM | 0.666 µM | 7.76 µM | 3.29 µM | 0.321 µM | > 100 µM | > 100 µM | 10.5 µM | > 100 µM |  |  |  |  |  |  |  |  |  | 
COc1ccc2c(c1)[nH]c(=O)c1c3cc(OC)c(OC)cc3cn21 | 14.9 µM | 1.28 µM | 24.4 µM | 0.233 µM | 0.0594 µM | 11.2 µM | 1.12 µM | 1.19 µM | 0.0125 µM | 22.3 µM | 0.0193 µM | 0.0323 µM | 0.0701 µM | < 0.0178 µM | < 0.01 µM | < 0.01 µM | < 0.0114 µM | < 0.01 µM | < 0.01 µM | 0.016 µM
COc1ccc(-c2nc(-c3ccccn3)c(-c3ccccn3)n2CC(C)C)cc1OC1CCCC1 | 158 µM | 115 µM | > 165 µM | > 165 µM | > 165 µM | 38.4 µM | 59.8 µM | > 165 µM | 81.3 µM | > 165 µM | 17.3 µM | 6.58 µM | 21.3 µM | 11.5 µM | 23.3 µM | 11.4 µM | 7.54 µM | 6.72 µM | 31.4 µM | 30.2 µM
Clc1ccc2nc(Cl)c3ccccc3c2c1 | > 100 µM | > 100 µM | > 100 µM | 86.8 µM | > 100 µM | > 100 µM | 52.9 µM | > 100 µM | > 100 µM | 40.2 µM | 11.8 µM | 96 µM | 14 µM | 6.21 µM | 58.5 µM | > 100 µM | 20.6 µM | > 100 µM | 63.4 µM | 9.26 µM
Cc1cc(NCc2cc(Nc3ccnc4cc(Cl)ccc34)ccc2F)nc(N2CCSCC2)n1 | 9.23 µM | 4.18 µM | 12.1 µM | 4.42 µM | 15.7 µM | 2.94 µM | > 100 µM | 3.54 µM | 4.49 µM | 60.7 µM | 2.54 µM | 1.64 µM | 2.71 µM | 1.83 µM | 3.31 µM | 1.53 µM | 0.473 µM | 1.54 µM | 1.96 µM | 4.23 µM
C[C@@H](Oc1cc(-n2cnc3ccc(OCC4CCN(C)CC4)cc32)sc1C(N)=O)c1ccccc1Cl | 3.11 µM | 3.68 µM | 4.81 µM | 4.9 µM | 0.141 µM | 1.26 µM | 0.856 µM | 3.39 µM | 0.147 µM | 5.01 µM | 0.0793 µM | 0.0123 µM | 0.674 µM | 0.129 µM | 0.0528 µM | 0.0929 µM | 0.00965 µM | 0.0998 µM | 0.0382 µM | 0.177 µM
CCOc1cc2c(=O)oc3c(OC)ccc4ccc(c1OC)c2c43 | 79.3 µM | > 100 µM | > 100 µM | > 100 µM | > 100 µM | > 100 µM | > 100 µM | > 100 µM | 90.7 µM | > 100 µM |  |  |  |  |  |  |  |  |  | 
CNC(=O)c1cc(Oc2ccc3nc(N[C@@H]4CCCC[C@H]4O)sc3c2)ccn1 | > 100 µM | > 100 µM | > 100 µM | > 100 µM | > 100 µM | 38.1 µM | > 100 µM | > 100 µM | > 100 µM | > 100 µM | 69.4 µM | 36.6 µM | 61.9 µM | > 77.2 µM | 71.8 µM | 18.1 µM | 43.1 µM | 38.1 µM | > 76.7 µM | > 100 µM
O=C(CCN1CCCC1)Nc1ccc2c(NCCc3ccccc3)c3ccccc3nc2c1 | 2.72 µM | 1.14 µM | 1.95 µM | 1.63 µM | 1.36 µM | 2.55 µM | 1.77 µM | 4.85 µM | 1.27 µM | 1.61 µM | 0.532 µM | 0.305 µM | 0.374 µM | 0.366 µM | 0.367 µM | 1.27 µM | 0.311 µM | 1.73 µM | 0.308 µM | 0.385 µM
